From PubChem BioAssay (NCI)
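Assay format: 96-well plates, 48-hour exposure. Here, GI50 denotes the concentration required for 50% inhibition of growth. The concentration for full growth arrest is given as TGI.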

Assays:
Test in all cases: inhibition of tumour cell growth, NCI panel, 48 h
[1] = test system: OVCAR-4 ovarian
[2] = test system: SF-295 CNS
[3] = test system: HCC-2998 colon
[4] = test system: CCRF-CEM leukemia
[5] = test system: HCT-116 colon
[6] = test system: HCT-15 colon
[7] = test system: SK-OV-3 ovarian
[8] = test system: HL-60(TB) leukemia
[9] = test system: OVCAR-8 ovarian
[10] = test system: A549 NSCLC

Structure (SMILES) | GI50 [1] [µM] | TGI [1] [µM] | GI50 [2] [µM] | TGI [2] [µM] | GI50 [3] [µM] | TGI [3] [µM] | GI50 [4] [µM] | GI50 [5] [µM] | TGI [5] [µM] | GI50 [6] [µM] | TGI [6] [µM] | GI50 [7] [µM] | TGI [7] [µM] | GI50 [8] [µM] | TGI [8] [µM] | GI50 [9] [µM] | TGI [9] [µM] | TGI [4] [µM] | GI50 [10] [µM] | TGI [10] [µM]
Oc1ccc2ccccc2c1/C=N\Nc1ccccn1 | 1.24 | > 100 | 0.64 | 2 | 4.13 | > 100 | 0.328 | 0.318 | > 39.2 | 0.511 | > 100 | 0.64 | > 55 | 0.267 | 0.795 | 0.365 | > 60.4 | – | – | –
COC(=O)c1oc2c(C(=O)/C=C/c3ccc(OC)cc3)c(OCCCN3CCCCC3)ccc2c1C | 2.49 | 9.15 | 1.8 | 3.93 | – | – | 0.783 | 1.24 | 3.02 | 0.901 | 2.35 | 1.25 | 4.35 | 0.872 | 2.7 | 1.67 | 4.23 | 3.4 | 2.04 | 5.28
CN(C)/[N+]([O-])=N/Oc1cc(Nc2ccc(C(=O)O)cc2)c([N+](=O)[O-])cc1[N+](=O)[O-] | – | – | 16.9 | 34 | – | – | – | 20.9 | 41.6 | 19.6 | 36.4 | – | – | 18.5 | 58.8 | 22.1 | 52.1 | – | 75 | > 100
O=[N+]([O-])c1ccc2[nH]cc(-c3c4ccccc4cc4[nH]c5ccc([N+](=O)[O-])cc5c34)c2c1 | 1.57 | 3.02 | 1.63 | 3.73 | 2.33 | 4.58 | 2.38 | 2.16 | 5 | 1.88 | 4.49 | 3.38 | 10.8 | – | – | 2.59 | 8.17 | 6.71 | 2.07 | 4.8
C=C1C(=O)O[C@H]2[C@H]1CC/C(COC(=O)CCC(=O)OC/C1=C/CC[C@@]3(C)O[C@H]3[C@H]3OC(=O)C(=C)[C@@H]3CC1)=C\CC[C@@]1(C)O[C@@H]21 | 2.07 | 5.9 | 10.5 | 25.3 | 2.13 | 4.4 | 0.251 | – | – | 1.54 | 3.58 | 23.1 | 84.8 | 0.233 | 0.812 | 2.75 | 10.4 | 0.778 | 13.7 | 30
COc1ccc(Cc2ccccc2C(=O)O)c2ccccc12 | – | > 100 | – | 93 | – | – | – | – | 47.3 | – | 92.4 | – | > 100 | – | 46 | – | > 100 | 95.3 | – | > 100
O=C(NC(=S)NS(=O)(=O)c1ccc(N2N=C3c4ccccc4CC3C2c2cccs2)cc1)c1ccccc1 (stereo unspecified) | 87.6 | > 100 | 25.4 | 78.6 | – | – | 27.9 | – | – | 30.2 | > 100 | 90.8 | > 100 | – | – | 20.3 | > 100 | > 100 | 20.3 | > 100
COc1nc2c(nc(N)n2C2OC(CO)C(O)C(O)C2O)c(=O)n1C (stereo unspecified) | – | > 100 | – | > 100 | – | > 100 | – | – | > 100 | – | – | – | > 100 | – | > 100 | – | > 100 | > 100 | – | > 100
COC(=O)/C(C#N)=C1\N=NNN1CCCc1ccccc1 | – | – | – | > 100 | – | > 100 | – | – | > 100 | – | > 100 | – | > 100 | – | – | – | > 100 | > 100 | – | > 100
N#C/C(=C/N1CCN(C(=O)c2ccco2)C1=S)C(N)=O | 18.5 | 73.8 | 32.1 | > 100 | – | – | > 100 | 21.2 | 92.9 | 3.82 | > 100 | 42.6 | > 100 | 22 | 57.3 | 43.7 | > 100 | > 100 | 34.5 | > 100
Cc1ccc(Cl)cc1Nc1nc(C(F)(F)F)ccc1C(=O)Oc1ccc(Cl)cc1 | 11.1 | 44.3 | 7.08 | 21.7 | 8.86 | 29.4 | 7.68 | 4.45 | 20 | 10.9 | 30.8 | 12.2 | 37.4 | – | – | 7.62 | 29 | 24.4 | 4.86 | 20.5
Cc1ccccc1NC(=O)NC(CC(N)=O)c1ccc2c(c1)nc(-c1cccc(Oc3ccc(C(C)(C)C)cc3)c1)n2CCCN1CCCCC1C (stereo unspecified) | 3.07 | 8.39 | 4.25 | 9.57 | 2.23 | 5.04 | 3.03 | 1.71 | 3.16 | 12.5 | 27.1 | 10.9 | 23.9 | – | – | 2.44 | 6.63 | 15.1 | 5.54 | 14.6
O=c1c2ccccc2nc(-c2ccc(Cl)cc2)n1O | – | > 100 | – | 94.1 | – | – | – | – | > 100 | – | > 100 | – | > 100 | – | 65 | – | 48.4 | 59.8 | – | > 100
CCCNc1nc(-c2ccc(OC)cc2)nc2ccccc12 | 41 | > 100 | 15.7 | 32.2 | 13.6 | 34.4 | 11.1 | 6.85 | 27.7 | 14.3 | 31.9 | 18.9 | 53 | – | – | 25 | 95 | 68.3 | 11.1 | 49.6
O=C1C(c2ccccc2)=C(c2ccccc2)C(c2ccccc2)/C1=C1\C(=O)C(c2ccccc2)=C(c2ccccc2)C1c1ccccc1 (stereo unspecified) | – | > 100 | – | > 100 | – | > 100 | – | – | > 100 | – | > 100 | – | > 100 | – | > 100 | – | > 100 | – | – | > 100
O=S1(=O)CSc2ccc3ccccc3c2-c2c1ccc1ccccc21 | – | > 100 | – | > 100 | – | > 100 | – | – | > 100 | – | – | – | – | – | > 100 | – | > 100 | > 100 | – | > 100
